Our source for the Drug uptake and viability values is ChEMBL document CHEMBL4251646, “Improved antibacterial activity of a marine peptide-N2 against intracellular Salmonella typhimurium by conjugating with cell-penetrating peptides-bLFcin6/Tat11” (Eur J Med Chem, 2018).

SMILES strings stand for the structures.

Data set [1] can be described thus: Drug internalization in mouse RAW264.7 cells at 1 uM using FITC-labeled test compound after 0.5 hrs by flow cytometry. In kind it is ADME, cell-based. The conditions noted are these: raw264.7, 0.5 h. On the technique in general: A flow cytometer gives signals particle by particle.
Data set [2] can be described thus: Drug uptake in mouse RAW264.7 cells at 5 uM using FITC-labeled test compound after 0.5 hrs by flow cytometry. It counts as ADME, cell-based. The conditions noted are these: raw264.7, 0.5 h.
The nature of data set [3]: Cytotoxicity against mouse RAW264.7 cells assessed as cell survival at 100 uM after 8 hrs by MTT assay. It counts as cell-based. The conditions noted are these: read-out: Survival. (Tetrazolium dyes change colour on reduction, which living cells bring about.)
A short description of data set [4]: Drug uptake in mouse RAW264.7 cells at 5 uM using FITC-labeled test compound after 2 hrs by flow cytometry. In kind it is ADME, cell-based. The conditions noted are these: raw264.7, 2 h.
Data set [5] is described as follows: Drug internalization in mouse RAW264.7 cells using FITC-labeled test compound by flow cytometry. It counts as ADME, cell-based.
A short description of data set [6]: Drug uptake in mouse RAW264.7 cells at 5 uM using FITC-labeled test compound after 5 hrs by Hoechst 33342/FM 4-64 staining-based confocal microscopic analysis. The conditions noted are these: raw264.7, 5 h. It counts as ADME, cell-based.
Data set [7] is described as follows: Drug internalization in mouse RAW264.7 cells at 1 uM using FITC-labeled test compound after 2 hrs by flow cytometry. It counts as ADME, cell-based. The conditions noted are these: raw264.7, 2 h.

Regarding `CC(C)[C@@H]1NC(=O)[C@H](C)NC(=O)[C@H](CC(N)=O)NC(=O)[C@H](CCCNC(=N)N)NC(=O)[C@H](Cc2ccc(O)cc2)NC(=O)[C@H](C(C)C)NC(=O)[C@@H]2CSSC[C@H](NC(=O)[C@H](C(C)C)NC(=O)[C@H](CCCNC(=N)N)NC1=O)C(=O)N[C@@H](Cc1c[nH]cn1)C(=O)N[C@@H](CCCNC(=N)N)C(=O)N[C@@H](CCCNC(=N)N)C(=O)N[C@H](C(=O)N[C@@H](CC(N)=O)C(=O)O)CSSC[C@H](NC(=O)[C@H](Cc1ccccc1)NC(=O)[C@H](C)N)C(=O)N[C@@H](Cc1c[nH]c3ccccc13)C(=O)N[C@@H](CC(N)=O)C(=O)N[C@@H](C(C)C)C(=O)N2`, the Drug uptake in data set [1] is 17.3%; in data set [2], 50%; in data set [4], 93.4%; in data set [5], “Dose-dependent effect and Tde”; in data set [6], “Not Active”; in data set [7] it was 31.4%. Also, the viability at 8 h, 100 µM in data set [3] came to 103%.
